The target in this assay is TrkA (Homo sapiens (Human), UniProt P04629). In words: TrkA Omnia Assay. To be noted: averaged IC50; 20 nM enzyme, 500 μM ATP, 10 μM peptide substrate. The assay is classed as biochemical. The method in brief: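 Recombinant TrkA (20 nM) preincubated 10 min at ambient temperature with compound, then Omnia Tyr Peptide #4 (10 μM) and ATP (500 μM) added in 25 mM MOPS pH 7.5, 5 mM MgCl2, 0.005% Triton X-100. Fluorescence (ex 360/em 485 nm) followed continuously for 70 min; IC50 from initial rates by 4- or 5-parameter logistic fit.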

Each structure is given as a SMILES string. Structures can show the parent of a compound that is named as a salt.

Chain of TrkA (P04629 33-796): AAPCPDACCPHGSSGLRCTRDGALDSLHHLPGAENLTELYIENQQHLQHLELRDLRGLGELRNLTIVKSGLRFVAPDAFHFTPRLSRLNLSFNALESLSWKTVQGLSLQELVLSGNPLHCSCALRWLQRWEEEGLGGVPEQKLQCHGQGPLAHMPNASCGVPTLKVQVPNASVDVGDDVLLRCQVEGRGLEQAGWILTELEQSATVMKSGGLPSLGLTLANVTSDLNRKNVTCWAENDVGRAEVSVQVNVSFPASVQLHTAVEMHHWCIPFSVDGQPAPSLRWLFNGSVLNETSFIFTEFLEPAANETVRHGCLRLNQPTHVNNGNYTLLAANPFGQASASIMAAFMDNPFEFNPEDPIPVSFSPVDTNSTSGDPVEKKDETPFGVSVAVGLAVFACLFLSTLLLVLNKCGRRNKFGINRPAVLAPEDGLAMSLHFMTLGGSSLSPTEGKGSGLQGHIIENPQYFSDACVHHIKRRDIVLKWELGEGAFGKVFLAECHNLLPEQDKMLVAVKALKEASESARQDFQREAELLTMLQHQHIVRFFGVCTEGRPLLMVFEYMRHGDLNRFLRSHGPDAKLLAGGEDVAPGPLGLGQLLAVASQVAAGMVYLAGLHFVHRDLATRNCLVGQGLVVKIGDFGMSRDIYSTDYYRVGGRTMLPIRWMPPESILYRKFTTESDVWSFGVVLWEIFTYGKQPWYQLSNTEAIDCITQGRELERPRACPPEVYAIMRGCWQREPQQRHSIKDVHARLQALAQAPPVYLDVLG

Regarding `COCCN1C[C@@H](NC(=O)Nc2c3c(nn2C)CCC3)[C@H](c2ccccc2)C1` (relative stereo) [Example 27, 1-(trans-1-(2-methoxyethyl)-4-phenylpyrrolidin-3-yl)-3-(2-methyl-2,4,5,6-tetrahydrocyclopenta[c]pyrazol-3-yl)urea], the IC50 fell in the range of 1000 to 10000 nM.

Consider `COCCN1C[C@@H](NC(=O)Nc2c3ccccc3nn2-c2ccccc2)[C@H](c2ccc(F)c(F)c2)C1` [Example 390, 1-((3S,4R)-4-(3,4-difluorophenyl)-1-(2-methoxyethyl)pyrrolidin-3-yl)-3-(2-phenyl-2H-indazol-3-yl)urea], for which the IC50 was less than 100 nM.

Turning to `COCCN1C[C@@H](NC(=O)Nc2c(Br)c(-c3cnn(C)c3)nn2C)[C@H](c2ccc(F)c(F)c2)C1` [Example 566, 1-(4-bromo-1,1′-dimethyl-1H, 1′H-[3,4′-bipyrazol]-5-yl)-3-((3S,4R)-4-(3,4-difluorophenyl)-1-(2-methoxyethyl)pyrrolidin-3-yl)urea], the IC50 lay in the range of 100 to 1000 nM.

`CCn1nc(-c2ccccc2)c(NC(=O)N[C@@H]2CN(CCOC)C[C@H]2c2ccc(F)c(F)c2)c1C` [Example 644, 1-((3S,4R)-4-(3,4-difluorophenyl)-1-(2-methoxyethyl)pyrrolidin-3-yl)-3-(1-ethyl-5-methyl-3-phenyl-1H-pyrazol-4-yl)urea] yielded an IC50 of less than 100 nM.

In turn, `Cc1c(OC[C@H](C)O)nn(-c2ccccc2)c1NC(=O)N[C@@H]1CN(c2cn[nH]c2)C[C@H]1c1ccc(F)c(F)c1` [Example 221, 1-((3S,4R)-4-(3,4-difluorophenyl)-1-(1H-pyrazol-4-yl)pyrrolidin-3-yl)-3-(3-((S)-2-hydroxypropoxy)-4-methyl-1-phenyl-1H-pyrazol-5-yl)urea] had an IC50 of less than 100 nM.

Compound `COCCN1C[C@@H](NC(=O)Nc2cc(C(C)(C)C)nn2C)[C@H](c2ccccc2)C1` (relative stereo) [Example 5, 1-(3-tert-butyl-1-methyl-1H-pyrazol-5-yl)-3-(trans-1-(2-methoxyethyl)-4-phenylpyrrolidin-3-yl) urea] came in with an IC50 of 1000 to 10000 nM.

In turn, `COCCN1C[C@@H](NC(=O)Nc2c(C)c(COC)nn2-c2ccccc2)[C@H](c2ccc(F)c(F)c2)C1` [Example 123, 1-((3S,4R)-4-(3,4-difluorophenyl)-1-(2-methoxyethyl)pyrrolidin-3-yl)-3-(3-(methoxy-methyl)-4-methyl-1-phenyl-1H-pyrazol-5-yl)urea] gave an IC50 of less than 100 nM.

Consider `COCCN1C[C@@H](NC(=O)Nc2c(C)c(OCCO)nn2-c2ccccc2)[C@H](c2cc(F)cc(F)c2)C1` [Example 149, 1-((3S,4R)-4-(3,5-difluorophenyl)-1-(2-methoxyethyl)pyrrolidin-3-yl)-3-(3-(2-hydroxy-ethoxy)-4-methyl-1-phenyl-1H-pyrazol-5-yl)urea], for which the IC50 is less than 100 nM.

Compound `CCN1C[C@@H](NC(=O)Nc2c3c(nn2-c2ccccc2)CCC3)[C@H](c2ccccc2)C1` (relative stereo) [Example 193, 1-((trans)-1-ethyl-4-phenylpyrrolidin-3-yl)-3-(2-phenyl-2,4,5,6-tetrahydrocyclopenta[c]pyrazol-3-yl)urea] registered a concentration for half-maximal inhibition (IC50) of 100 to 1000 nM.

In turn, `COCCN1C[C@@H](NC(=O)Nc2c3c(nn2-c2ccccc2)CCC3)[C@H](c2ccccc2)C1` (relative stereo) [Example 14, 1-(trans-1-(2-methoxyethyl)-4-phenylpyrrolidin-3-yl)-3-(2-phenyl-2,4,5,6-tetrahydrocyclopenta[c]pyrazol-3-yl)urea] registered an IC50 of less than 100 nM.

In turn, `COCCN1C[C@@H](NC(=O)Nc2cc(-c3ccncc3)nn2C)[C@H](c2ccc(F)c(F)c2)C1` [Example 97, 1-((3S,4R)-4-(3,4-difluorophenyl)-1-(2-methoxyethyl)pyrrolidin-3-yl)-3-(1-methyl-3-(pyridin-4-yl)-1H-pyrazol-5-yl)urea] returned an IC50 of less than 100 nM.

Consider `COCCN1C[C@@H](NC(=O)Nc2c(C)c(Br)nn2-c2ccccc2)[C@H](c2ccc(F)cc2)C1` [Example 516, 1-(3-bromo-4-methyl-1-phenyl-1H-pyrazol-5-yl)-3-((3S,4R)-4-(4-fluorophenyl)-1-(2-methoxyethyl)pyrrolidin-3-yl)urea], for which the IC50 was less than 100 nM.

Compound `COCCN1C[C@@H](NC(=O)Nc2c(C)c(-c3nn(C(C)C)c(=O)o3)nn2-c2ccccc2)[C@H](c2ccc(F)c(F)c2)C1` [Example 601, 1-((3S,4R)-4-(3,4-difluorophenyvl)-1-(2-methoxyethyl)pyrrolidin-3-yl)-3-(3-(4-isopropyl-5-oxo-4,5-dihydro-1,3,4-oxadiazol-2-yl)-4-methyl-1-phenyl-1H-pyrazol-5-yl)urea] yielded an IC50 of less than 100 nM.

`CNC(=O)c1nn(-c2ccccc2)c(NC(=O)N[C@@H]2CN(CCOC)C[C@H]2c2ccc(F)c(Cl)c2)c1C` (relative stereo) [Example 301, 5-(3-(trans-4-(3-chloro-4-fluorophenyl)-1-(2-methoxyethyl)pyrrolidin-3-yl)ureido)-N,4-dimethyl-1-phenyl-1H-pyrazole-3-carboxamide] gave an IC50 of less than 100 nM.

Turning to `COCCN1C[C@@H](NC(=O)Nc2c(C)c(-c3cnn(C)c3C)nn2-c2ccccc2)[C@H](c2ccc(F)c(F)c2)C1` [Example 507, 1-((3S,4R)-4-(3,4-difluorophenyl)-1-(2-methoxyethyl)pyrrolidin-3-yl)-3-(1′,4,5′-trimethyl-1-phenyl-1H,1′H-[3,4′-bipyrazol]-5-yl)urea], the half-maximal inhibitory concentration (IC50) is less than 100 nM.

The compound `Cc1c(OC[C@H]2COC(C)(C)O2)nn(-c2ccccc2)c1NC(=O)N[C@H]1CN(CC(F)(F)F)C[C@@H]1c1ccccc1` [Example 271, 1-(3-(((S)-2,2-dimethyl-1,3-dioxolan-4-yl)methoxy)-4-methyl-1-phenyl-1H-pyrazol-5-yl)-3-((3R,4S)-4-phenyl-1-(2,2,2-trifluoroethyl)pyrrolidin-3-yl)urea] displayed an IC50 of less than 100 nM.

In turn, `COCCN1C[C@@H](NC(=O)Nc2c(Cl)c(COC3CCNCC3)nn2-c2ccccc2)[C@H](c2ccc(F)c(F)c2)C1` [Example 590, 1-(4-chloro-1-phenyl-3-((piperidin-4-yloxy)methyl)-1H-pyrazol-5-yl)-3-((3S,4R)-4-(3,4-difluorophenyl)-1-(2-methoxyethyl)pyrrolidin-3-yl)urea dihydrochloride] registered a concentration for half-maximal inhibition (IC50) of less than 100 nM.

With `CCOc1nn(-c2ccccc2)c(NC(=O)N[C@@H]2CN(CCOC)C[C@H]2c2ccc(F)c(F)c2)c1C` [Example 135, 1-((3S,4R)-4-(3,4-difluorophenyl)-1-(2-methoxyethyl)pyrrolidin-3-yl)-3-(3-ethoxy-4-methyl-1-phenyl-1H-pyrazol-5-yl)urea], the IC50 was less than 100 nM.

Consider `COCCN1C[C@@H](NC(=O)Nc2c(C#N)c(=O)[nH]n2-c2ccccc2)[C@H](c2ccc(F)c(F)c2)C1` [Example 618, 1-(4-cyano-5-oxo-2-phenyl-2,5-dihydro-1H-pyrazol-3-yl)-3-((3S,4R)-4-(3,4-difluorophenyl)-1-(2-methoxyethyl)pyrrolidin-3-yl)urea], for which the IC50 is less than 100 nM.

Regarding `COCCN1C[C@@H](NC(=O)Nc2cc(C(C)(C)C)nn2-c2ccccc2F)[C@H](c2ccccc2)C1` (relative stereo) [Example 16, 1-(3-tert-butyl-1-(2-fluorophenyl)-1H-pyrazol-5-yl)-3-(trans-1-(2-methoxyethyl)-4-phenylpyrrolidin-3-yl)urea], the IC50 is 1000 to 10000 nM.

`COCCN1C[C@@H](NC(=O)Nc2c3c(nn2-c2ccccc2)CSC3)[C@H](c2ccccc2)C1` [Example 82, 1-((3S,4R)-1-(2-methoxy-ethyl)-4-phenylpyrrolidin-3-yl)-3-(2-phenyl-4,6-dihydro-2H-thieno[3,4-c]pyrazol-3-yl)urea] came in with an IC50 of less than 100 nM.

For `COCCOC(=O)c1ccc(-c2cc(NC(=O)N[C@@H]3CN(CCOC)C[C@H]3c3ccc(F)c(F)c3)n(C)n2)cc1` [Example 170, 2-methoxyethyl 4-(5-(3-((3S,4R)-4-(3,4-difluorophenyl)-1-(2-methoxyethyl)pyrrolidin-3-yl)ureido)-1-methyl-1H-pyrazol-3-yl)benzoate], the IC50 was less than 100 nM.

The compound `Cc1c(-c2cnc(N)nc2)nn(-c2ccccc2)c1NC(=O)N[C@H]1CN(CC(F)(F)F)C[C@@H]1c1ccccc1` [Example 522, 1-(3-(2-aminopyrimidin-5-yl)-4-methyl-1-phenyl-1H-pyrazol-5-yl)-3-((3R,4S)-4-phenyl-1-(2,2,2-trifluoroethyl)pyrrolidin-3-yl)urea bis(2,2,2-trifluoroacetate)] yielded an IC50 of less than 100 nM.

Regarding `COc1ncccc1N1C[C@@H](NC(=O)Nc2c(C)c(-c3ccccc3)nn2-c2ccccc2)[C@H](c2ccccc2)C1` [Example 245, 1-((3S,4R)-1-(2-methoxypyridin-3-yl)-4-phenylpyrrolidin-3-yl)-3-(4-methyl-1,3-diphenyl-1H-pyrazol-5-yl)urea], the IC50 was in the range of 100 to 1000 nM.

In turn, `COCCN1C[C@@H](NC(=O)Nc2cc(C)nn2C)[C@H](c2ccccc2)C1` (relative stereo) [Example 6, 1-(1,3-dimethyl-1H-pyrazol-5-yl)-3-(trans-1-(2-methoxyethyl)-4-phenylpyrrolidin-3-yl) urea] returned an IC50 of 1000 to 10000 nM.

Consider `CCOc1nn(-c2ccccc2)c(NC(=O)N[C@@H]2CN(c3ccnn3C)C[C@H]2c2ccccc2)c1C` [Example 228, 1-(3-ethoxy-4-methyl-1-phenyl-1H-pyrazol-5-yl)-3-((3S,4R)-1-(1-methyl-1H-pyrazol-5-yl)-4-phenylpyrrolidin-3-yl)urea], for which the IC50 was less than 100 nM.

Compound `COCCN1C[C@@H](NC(=O)Nc2c(Cl)c(OC[C@@H](C)O)nn2-c2ccccc2)[C@H](c2cc(F)cc(F)c2)C1` [Example 373, 1-(4-chloro-3-((R)-2-hydroxypropoxy)-1-phenyl-1H-pyrazol-5-yl)-3-((3S,4R)-4-(3,5-difluorophenyl)-1-(2-methoxyethyl)pyrrolidin-3-yl)urea] gave an IC50 of less than 100 nM.

Values taken from patent US10323022B2, “Pyrrolidinyl urea, pyrrolidinyl thiourea and pyrrolidinyl guanidine compounds as TrkA kinase inhibitors” (Array BioPharma Inc., priority 2011, dated 2019).
